What all share (format): cell-based
Assay [1] deals with activation protein-1 (AP-1). Kind of assay: Activity inhibition test of AP-1, Coll-CAT reporter in HaCAT cells. The conditions noted are these: c-Jun expression, in the presence of retinoic acid receptor α, CAT ELISA, FIG. 6. The procedure: Since the activation protein-1 (c-Jun is the constituent of AP-1) is transcription factor inducing expression of collagenase enzyme, which is a major cause of skin wrinkle, the effect of wrinkle prevention was determined by the activity inhibition test of AP-1.
CAT reporter (Coll-CAT) containing collagen promoter including AP-1 transcription factor binding site (TRE) were utilized to cotransfect skin cancer (HaCAT) cell line. The effect of retinol derivatives on the activity of AP-1 was measured by CAT ELISA. In some cases, the vector expressing c-Jun or retinoic acid receptors were utilized to cotransfect, and the effect of retinol derivatives on the transcription activity of c-Jun was analyzed.
With the assumption of the prepared retinol-(N-formyl-aspartam) derivatives which inhibit the activity of AP-1 causing skin wrinkle, would have the utility for cosmetics, the related investigations were proceeded. Similar to the experiment of retinoic acid receptor, AP-1 (c-jun) expression vector and Coll-CAT plasmid for the activity measurement were introduced into the skin cancer (HaCAT) cell line with liposome. After treating the cells with retinol-(N-formyl-aspartam) derivatives, the cell extracts were isolated. The expression level of CAT were measured with CAT ELISA to determine the effect of retinol-(N-formyl-aspartam) on the activity of the AP-1.
In general terms: An ELISA detects its analyte on a solid surface through an enzyme-linked reagent.

Assay [2] deals with activation protein-1 (AP-1). The experiment in a line: Activity inhibition test of AP-1, Coll-CAT reporter in Cos-1 cells. As to conditions: expression level in the presence of c-Jun expression set as 100%. From the text:
CAT reporter (Coll-CAT) containing collagen promoter including AP-1 transcription factor binding site (TRE) was utilized to transfect Cos-1 cell line. Activity inhibition tests of activation protein-1 (AP-1) similar to the experimental example 6 were proceeded.

The target in assay [3] is T1, retinoic acid receptor γ (Homo sapiens, UniProt P13631).
T1 construct: expressed in transfected cells; b135 says HaCAT
T1 sequence (P13631 1-454): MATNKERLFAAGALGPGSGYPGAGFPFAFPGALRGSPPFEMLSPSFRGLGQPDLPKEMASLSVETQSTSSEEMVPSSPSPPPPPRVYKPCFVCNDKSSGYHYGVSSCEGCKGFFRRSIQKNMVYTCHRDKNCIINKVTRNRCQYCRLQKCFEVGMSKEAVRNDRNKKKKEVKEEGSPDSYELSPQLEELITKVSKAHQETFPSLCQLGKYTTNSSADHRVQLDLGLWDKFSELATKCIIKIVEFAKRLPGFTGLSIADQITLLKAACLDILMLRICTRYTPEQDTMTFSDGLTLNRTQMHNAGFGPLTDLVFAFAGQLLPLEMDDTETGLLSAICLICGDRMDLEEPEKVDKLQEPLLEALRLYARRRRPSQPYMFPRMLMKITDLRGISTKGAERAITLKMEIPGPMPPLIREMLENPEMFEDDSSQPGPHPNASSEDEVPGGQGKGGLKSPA
The experiment in a line: RAR activity test, DR5-tk-CAT reporter in HaCAT cells. As to conditions: 1 μM, CAT ELISA, FIG. 2 (A). From the text: (§1) To analyze the effects of retinol-(N-formyl-aspartam) on the activity of retinoic acid receptor, skin cancer (HaCAT) cell lines were utilized to measure the activity of retinoic acid receptor/retinoid X receptor.
(§2) Recombinant DNA, DR5-tk-CAT or DR1-tk-CAT consisting of DR1 or DR5, effectors of retinoic acid receptor/retinoid X receptor, thymine kinase promoter, and CAT(chloramphenicol acetyl transferase) were mixed with the plasmid DNA expressing retinoic acid receptor α, β, ? or retinoid X receptor α, β, ? to cotransfect skin cancer (HaCAT) cell line with lipofectamine (GibcoBRL). The cotransfected cell lines were cultured for 1 day on DMEM/10% FBS media, each retinol derivatives (1 μM) were added and cultured for one more day, 5% CO2, 37° C. The cells were washed with phosphate-buffered saline (PBS), and the proteins were isolated from each cells, and the activity of β-galactosidase and protein contents were measured to determine transfection efficacy, the transcription level of RAR or RXR receptor were measured with CAT ELISA (Roche Molecular Biochemical, Mannheim, Germany).
(§3) To determine the effect of retinol-(N-formyl-aspartam) on retinoic acid receptors, each retinoic acid receptor (α, β, or ? ) expression vector and activity measuring DR5-tk-CAT plasmid were introduced with liposome. After treating cells with retinol-(N-formyl-aspartam), the cell extracts were isolated. The expression level of CAT were measured with CAT ELISA to determine the effect of retinol-(N-formyl-aspartam) on the activity of retinoic acid receptors.

Assay [4] addresses T2, retinoic acid receptor β (Homo sapiens, UniProt P10826).
T2 construct: expressed in transfected cells; b135 says HaCAT
T2 sequence (P10826 1-455): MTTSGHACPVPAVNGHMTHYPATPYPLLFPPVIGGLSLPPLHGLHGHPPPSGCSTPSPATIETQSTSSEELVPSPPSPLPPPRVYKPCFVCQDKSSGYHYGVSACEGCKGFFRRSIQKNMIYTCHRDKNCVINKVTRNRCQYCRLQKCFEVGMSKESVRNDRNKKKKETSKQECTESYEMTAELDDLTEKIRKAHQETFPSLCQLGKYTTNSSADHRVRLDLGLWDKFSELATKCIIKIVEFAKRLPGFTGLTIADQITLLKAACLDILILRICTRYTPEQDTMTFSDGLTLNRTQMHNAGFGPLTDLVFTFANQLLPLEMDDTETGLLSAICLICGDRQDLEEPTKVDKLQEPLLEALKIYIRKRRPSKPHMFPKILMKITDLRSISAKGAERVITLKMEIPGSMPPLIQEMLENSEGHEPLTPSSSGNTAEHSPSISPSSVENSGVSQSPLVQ
The description is as above. The conditions noted are these: 1 μM, CAT ELISA, FIG. 2 (A).
Excerpt: as §1, §2, §3

For assay [5], the target named is T3, retinoic acid receptor α (Homo sapiens, UniProt P10276).
T3 construct: expressed in transfected cells; b135 says HaCAT
T3 sequence (P10276 1-462): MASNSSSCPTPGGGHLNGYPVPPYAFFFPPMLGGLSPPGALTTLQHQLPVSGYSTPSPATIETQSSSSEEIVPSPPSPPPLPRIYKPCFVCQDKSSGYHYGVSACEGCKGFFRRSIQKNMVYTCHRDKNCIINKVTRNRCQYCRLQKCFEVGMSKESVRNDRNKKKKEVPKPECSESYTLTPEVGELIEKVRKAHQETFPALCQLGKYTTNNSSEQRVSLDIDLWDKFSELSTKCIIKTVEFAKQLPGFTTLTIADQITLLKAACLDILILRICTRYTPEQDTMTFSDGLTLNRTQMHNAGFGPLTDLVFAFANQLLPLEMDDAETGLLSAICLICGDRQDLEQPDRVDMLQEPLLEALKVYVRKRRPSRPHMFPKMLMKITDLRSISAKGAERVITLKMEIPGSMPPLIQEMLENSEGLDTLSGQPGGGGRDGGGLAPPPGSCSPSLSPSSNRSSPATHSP
The assay is described as above. The conditions noted are these: 1 μM, CAT ELISA, FIG. 2 (A).
Excerpt: as §1, §2, §3

This note sets out measurements from US7030265B2, “Retinol derivatives, the method of preparations and the uses thereof” (Chebigen, Inc., priority 2001, dated 2006).

With `COC(=O)C(Cc1ccccc1)NC(=O)[C@H](CC(=O)OC/C=C(C)/C=C/C=C(C)/C=C/C1=C(C)CCCC1(C)C)NC=O` (stereo partly drawn) [retinol-(N-formyl-aspartam), (2E,4E,6E,8E)-3,7-dimethyl-9-(2,6,6-trimethyl-1-cyclohexenyl)-2,4,6,8-nonatetraenyl(3S)-4-[(1-benzyl-2-methoxy-2-oxoethyl)amino]-3-formylamino-4-oxobutanoate], the “lowered the expression of collagenase (Coll-CAT)” value in assay [1] is reported as about 44%; in assay [2], “approximately 42%”. Also, the “activation of retinoic acid receptor γ” value in assay [3] is “weak activation”. For the same molecule, in assay [4], the “activation of retinoic acid receptor β” value is recorded as “weak activation”. Besides, in assay [5], the “activation of retinoic acid receptor α” value is reported as “high activation”.
